Laboratory results as given in patent publication EP1568770A2, “Pharmaceutical use of compounds which bind to a mammalian "trace amine" receptor” (priority 2000, dated 2002).
“Also recorded” adds a separate entry of the source. Read-outs that look alike come from different tables or passages of the source.

Tests used:
[1] = target: T1, rat trace amine receptor (Rattus norvegicus, UniProt Q923Y9); assay: cell-based; format: cell-based; conditions: for Emax: HEK293, percent of stimulation by p-tyramine, read-out: Maximal Stimulation (%±SEM)
T1 construct: HEK293 cells stably transfected with the pcDNA3.1/V5/His-TOPO expression vector containing the full-length rat cDNA clone described above; expressed in transfected cells

[2] = system: human trace amine receptor; format: cell-based; conditions: luciferase reporter; HEK 293 cells transfected with H2-3pcDNA3.1
[3] = system: HEK 293 cells; format: cell-based, human; conditions: luciferase reporter; control cells transfected with pcDNA3.1
Excerpt: Control cells were transfected with pcDNA3.1 without the rat trace amine receptor sequences. All cells were also co-transfected with 2 additional constructs: one (elk-gal) that encoded the yeast transcription factor gal under the transcriptional control of an Elk-responsive promoter; and another encoding firefly luciferase under the transcriptional control of a gal-responsive promoter. […]

[4] = Table III, cAMP, 1 hour at 37°C, 100 µM IBMX, read-out: EC50 (nM±SEM)
[5] = untitled table after Table III, DRUGS, read-out: EC50

T1 sequence (Q923Y9 whole entry): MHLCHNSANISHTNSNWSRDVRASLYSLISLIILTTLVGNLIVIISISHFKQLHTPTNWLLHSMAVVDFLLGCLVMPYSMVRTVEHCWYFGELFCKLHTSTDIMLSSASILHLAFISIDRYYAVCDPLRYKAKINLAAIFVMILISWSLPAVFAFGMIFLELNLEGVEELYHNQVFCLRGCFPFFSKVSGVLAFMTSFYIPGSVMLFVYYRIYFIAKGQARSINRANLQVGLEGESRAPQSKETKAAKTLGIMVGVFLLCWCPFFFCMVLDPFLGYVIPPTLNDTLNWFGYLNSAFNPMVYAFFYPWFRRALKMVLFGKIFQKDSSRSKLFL

CCNC(C)Cc1ccccc1 (racemic) [(±)N-ethylamphetamine]
activation of the trace amine receptor / cAMP production, in words [1]: substantially lower activities

CCNC(C)Cc1cccc(C(F)(F)F)c1 (racemic) [(±)fenfluramine]
activation of the trace amine receptor / cAMP production, in words [1]: substantially lower activities

CNC(C)Cc1ccc2c(c1)OCO2 (racemic) [MDMA]
activation of the trace amine receptor / cAMP production, in words [1]: potently stimulated cAMP production
Emax ([1]; Table III): 65 ± 13%
EC50 [1, 4]: 1750 ± 1150 nM
EC50 [1, 5]: 179 nM

COc1cc(CC(C)N)c(OC)cc1I (stereo not drawn) [2-amino,(1-[2,5-dimethoxy-4-iodophenyl]propane]
activation of the trace amine receptor / cAMP production, in words [1]: activate the receptor

COc1cc(CCN)ccc1O [3-methoxytyramine]
activation of the trace amine receptor / cAMP production, in words [1]: efficacious activators
activation of the trace amine receptor / cAMP production, in words ([1]; listed as 3-MT): potent and efficacious agonist

CC(N)Cc1ccc(O)cc1 (stereo not drawn) [4-hydroxyamphetamine, α-methyl-p-tyramine]
activation of the trace amine receptor / cAMP production, in words [1]: most potent agonist
Emax ([1]; Table III): 79 ± 2%
EC50 [1, 4]: 51 ± 12 nM

NC1CCc2cc(O)c(O)cc2C1 (stereo not drawn) [ADTN67]
fold stimulation for each potential ligand compared with cells incubated in the absence of the ligand, H2-3 pcDNA3.1 [2]: 1.93 fold
fold stimulation for each potential ligand compared with cells incubated in the absence of the ligand, pcDNA3.1 [3]: 0.78 fold

CC(C)C[C@H]1C(=O)N2CCC[C@H]2[C@]2(O)O[C@](NC(=O)[C@@H]3C=C4c5cccc6[nH]c(Br)c(c56)C[C@H]4N(C)C3)(C(C)C)C(=O)N12 [Bromocryptine, bromocriptine]
activation of the trace amine receptor / cAMP production, in words [1]: potently activate

CCN(CC)C(=O)[C@@H]1C=C2c3cccc4[nH]cc(c34)C[C@H]2N(C)C1 [D-LSD]
activation of the trace amine receptor / cAMP production, in words [1]: potently activate

C[C@@H](CO)NC(=O)[C@@H]1C=C2c3cccc4[nH]cc(c34)C[C@H]2N(C)C1 [Ergotmetrine, ergometrine]
activation of the trace amine receptor / cAMP production, in words [1]: potently activate

NCCCC(=O)O [GABA]
activation of the trace amine receptor / cAMP production, in words [1]: not activated

CN1CC=C(c2ccccc2)CC1 [MPTP, 1-methyl-4-phenyl-1,2,3,6-tetrahydropyridine]
activation of the trace amine receptor / cAMP production, in words [1]: stimulate camp production
Emax ([1]; Table III): 93 ± 7%

NC[C@H](O)c1ccc(O)c(O)c1 [Norepinephrine]
fold stimulation for each potential ligand compared with cells incubated in the absence of the ligand, H2-3 pcDNA3.1 [2]: 1.69 fold
fold stimulation for each potential ligand compared with cells incubated in the absence of the ligand, pcDNA3.1 [3]: 1.3 fold

NCC(O)c1ccc(O)cc1 (stereo not drawn) [Octopamine]
Emax ([1]; Table III): 102 ± 3%
EC50 ([1]; read-out: EC50 (nM±SEM)): 1300 ± 350 nM

NCCc1ccccc1 [Phenethylamine, β-phenethylamine]
Emax ([1]; Table III): 76 ± 16%

Cc1ccc(N(CC2=NCCN2)c2cccc(O)c2)cc1 [Phentolamine]
activation of the trace amine receptor / cAMP production, in words [1]: stimulate camp production

C[C@@H](N)Cc1ccc(O)cc1 [R-OH amphetamine]
EC50 [1, 5]: 11.3 nM

CN[C@H](C)Cc1ccccc1 [R-methamphetamine]
EC50 [1, 5]: 236 nM

C=CCN1CCc2c(cc(O)c(O)c2Cl)C(c2ccccc2)C1 (stereo not drawn) [SKF82958]
fold stimulation for each potential ligand compared with cells incubated in the absence of the ligand, H2-3 pcDNA3.1 [2]: 2.52 fold

NCCc1c[nH]c2ccc(O)cc12 [Serotonin, 5-hydroxytryptamine]
Emax ([1]; Table III): 47 ± 9%
fold stimulation for each potential ligand compared with cells incubated in the absence of the ligand, pcDNA3.1 [3]: 1 fold

CNCC(O)c1ccc(O)cc1 (stereo not drawn) [Synephrine]
Emax ([1]; Table III): 90 ± 2%

c1ccc(CC2=NCCN2)cc1 [Tolazoline]
activation of the trace amine receptor / cAMP production, in words [1]: stimulate camp production

NCCc1c[nH]c2ccccc12 [Tryptamine]
Emax ([1]; Table III): 90 ± 6%
EC50 [1, 4]: 309 ± 76 nM

CN(C)CCCN1c2ccccc2Sc2ccc(Cl)cc21 [chlorpromazine]
activation of the trace amine receptor / cAMP production, in words [1]: weak agonist

CN1C[C@H](C(=O)N[C@]2(C)O[C@@]3(O)[C@@H]4CCCN4C(=O)[C@H](Cc4ccccc4)N3C2=O)C[C@@H]2c3cccc4[nH]cc(c34)C[C@H]21 [dihydroergotamine]
activation of the trace amine receptor / cAMP production, in words [1]: potently activate; also recorded: stimulate camp production

NCCc1c[nH]cn1 [histamine]
activation of the trace amine receptor / cAMP production, in words [1]: not activated

COc1cc(CC(=O)O)ccc1O [homovanillic acid, 3-methoxy-4-hydroxyphenylacetic acid]
activation of the trace amine receptor / cAMP production, in words [1]: no detectible activity

NCCc1cccc(O)c1 [m-tyramine]
Emax ([1]; Table III): 74 ± 3%

CNCC(O)c1ccc(O)c(OC)c1 (stereo not drawn) [metanephrine, 3-methoxy-β-4-dihydroxy-N-methyl-β-phenethylamine]
activation of the trace amine receptor / cAMP production, in words [1]: efficacious activators

CN1C[C@H](CNC(=O)OCc2ccccc2)C[C@@H]2c3cccc4c3c(cn4C)C[C@H]21 [metergoline]
activation of the trace amine receptor / cAMP production, in words [1]: stimulate camp production

CN[C@@H](C)Cc1ccccc1 [methamphetamine]
activation of the trace amine receptor / cAMP production, in words [1]: potently stimulated cAMP production

CN1CC[C@]23c4c5ccc(O)c4O[C@H]2[C@@H](O)C=C[C@H]3[C@H]1C5 [morphine]
activation of the trace amine receptor / cAMP production, in words [1]: not activated

CN1CCCC1c1cccnc1 (stereo not drawn) [nicotine]
activation of the trace amine receptor / cAMP production, in words [1]: not activated

CN1Cc2c(N)cccc2C(c2ccccc2)C1 (stereo not drawn) [nomifensine]
activation of the trace amine receptor / cAMP production, in words [1]: stimulate camp production

COc1cc(C(O)CN)ccc1O (stereo not drawn) [normetanephrine, 3-methoxy-β-4-dihydroxy-β-phenethlamine]
activation of the trace amine receptor / cAMP production, in words [1]: efficacious activators

NCCc1ccc(O)cc1 [p-tyramine]
EC50 ([1]; read-out: EC50 (nM±SEM)): 69 ± 9 nM
